Assay [1] deals with T1, gp91phox-containing NADPH-oxidase in the mouse macrophage cell line J774 (Mus musculus, UniProt Q61093).
T1 construct: endogenous in cells; host or cells: J774 mouse macrophage cell line (intact cells)
T1 sequence (Q61093 2-570 limits assumed): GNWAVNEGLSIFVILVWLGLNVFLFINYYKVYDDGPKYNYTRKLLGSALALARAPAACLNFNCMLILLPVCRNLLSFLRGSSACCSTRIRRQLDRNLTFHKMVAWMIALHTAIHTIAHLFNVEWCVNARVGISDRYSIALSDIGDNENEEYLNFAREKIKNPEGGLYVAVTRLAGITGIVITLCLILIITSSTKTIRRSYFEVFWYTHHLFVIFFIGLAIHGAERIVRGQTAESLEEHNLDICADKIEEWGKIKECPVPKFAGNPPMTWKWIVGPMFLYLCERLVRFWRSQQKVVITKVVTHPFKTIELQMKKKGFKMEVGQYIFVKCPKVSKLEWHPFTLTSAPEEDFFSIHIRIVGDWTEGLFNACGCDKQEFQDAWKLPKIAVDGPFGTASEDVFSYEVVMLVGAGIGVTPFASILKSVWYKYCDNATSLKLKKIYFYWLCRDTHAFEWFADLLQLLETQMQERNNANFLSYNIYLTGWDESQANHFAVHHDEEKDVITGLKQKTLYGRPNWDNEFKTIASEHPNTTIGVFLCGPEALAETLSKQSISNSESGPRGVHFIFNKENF
T1 sequence (Q61462 1-192 partner): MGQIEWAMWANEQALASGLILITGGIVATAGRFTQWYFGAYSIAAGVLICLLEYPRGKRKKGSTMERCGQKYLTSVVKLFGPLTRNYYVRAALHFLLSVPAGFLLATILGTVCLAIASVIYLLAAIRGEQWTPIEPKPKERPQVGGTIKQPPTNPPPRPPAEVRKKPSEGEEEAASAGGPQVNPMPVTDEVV
Briefly: NADPH oxidase activity in intact J774 mouse macrophages. It counts as cell-based. As to conditions: FIG. 2b.

For assay [2], the target named is T2, Nox4-containing NADPH-oxidase in mouse endothelium (Mus musculus, UniProt Q9JHI8).
T2 construct: Nox4-containing NADPH-oxidase in mouse vascular smooth muscle cells (VSMC, a) and endothelium; endogenous in cells; host or cells: mouse endothelium (preparation not described)
T2 sequence (Q9JHI8 1-578): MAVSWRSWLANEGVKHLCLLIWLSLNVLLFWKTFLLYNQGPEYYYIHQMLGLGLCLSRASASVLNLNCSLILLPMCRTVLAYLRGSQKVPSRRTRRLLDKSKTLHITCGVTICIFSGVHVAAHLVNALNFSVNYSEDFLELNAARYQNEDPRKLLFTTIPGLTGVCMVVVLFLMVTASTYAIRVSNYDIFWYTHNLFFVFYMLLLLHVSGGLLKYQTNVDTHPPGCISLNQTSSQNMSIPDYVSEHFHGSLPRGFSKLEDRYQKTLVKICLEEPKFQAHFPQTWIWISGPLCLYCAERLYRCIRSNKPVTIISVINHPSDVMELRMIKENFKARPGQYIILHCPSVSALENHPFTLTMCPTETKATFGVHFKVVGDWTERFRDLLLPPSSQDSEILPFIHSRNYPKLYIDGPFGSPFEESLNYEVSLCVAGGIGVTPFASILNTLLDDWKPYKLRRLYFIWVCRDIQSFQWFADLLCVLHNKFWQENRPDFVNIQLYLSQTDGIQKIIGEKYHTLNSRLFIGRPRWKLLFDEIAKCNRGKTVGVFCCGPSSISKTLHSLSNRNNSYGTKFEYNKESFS
T2 sequence (Q61462 1-192 partner): T1 sequence (Q61462 1-192 partner)
Briefly: NADPH-driven NADPH-oxidase activity in mouse endothelium. Type of assay: cell-based. To be noted: suramin ≦100 μM.

The subject of another assay is rat basilar artery. Briefly: Acetylcholine-induced dilator responses of the rat basilar artery in vivo after subarachnoid haemorrhage. To be noted: suramin 300 mg/kg s.c. over 7 days, 2 days after SAH, FIG. 14. On the procedure:
Subarachnoid hemorrhage: On Day 0, rats are briefly anaesthetized (pentobarbital 50 mg/kg ip) and an osmotic minipump containing either saline or suramin is implanted subcutaneously. The dose rate of suramin is 300 mg/kg per 7 days. On Day 5, rats are again anaesthetized and 0.3 ml of blood is withdrawn from a femoral artery and injected into the cerebrospinal fluid around the ventral surface of the brain via the cisterna magna. In some control rats, saline is injected into the cerebrospinal fluid instead of arterial blood. The rat is allowed to recover for a further 2 days, and is then again anaesthetized on Day 7 for study.
Measurement of cerebral artery responses in vivo: Rats are anaesthetized with pentbarbital (50 mg/kg ip) and anaesthesia is maintained with supplemental pentobarbital (10-20 mg/kg per h iv). […] Basilar artery diameter is continuously measured using a computer-based image tracking device. The endothelium-dependent vasodilator acetylcholine is superfused over the basilar artery at a steady concentration of 1 micromolar for 3-5 minutes, and the increase in diameter is measured. The concentration of acetylcholine is then increased to 10, and then 100 micromolar in a similar manner and increases in diameter recorded. […] Responses to acetylcholine are then expressed as a percent of this maximum response. […]

“Also recorded” adds a separate entry of the source.

Results on 1 compound are retold here after US20070037883A1, “Therapeutic compositions” (priority 2003, published 2007).

For the compound `Cc1ccc(C(=O)Nc2ccc(S(=O)(=O)O)c3cc(S(=O)(=O)O)cc(S(=O)(=O)O)c23)cc1NC(=O)c1cccc(NC(=O)Nc2cccc(C(=O)Nc3cc(C(=O)Nc4ccc(S(=O)(=O)O)c5cc(S(=O)(=O)O)cc(S(=O)(=O)O)c45)ccc3C)c2)c1` [suramin], the “effect on gp91phox-containing NADPH-oxidase in J774 macrophages / phagocytic cells” value is “does not inhibit; also recorded: ineffective” in assay [1] and “little effect” in assay [1] (listed as Suramin). In addition, in assay [2], the “inhibition of 100 μM NADPH-driven activity of Nox4-containing NADPH-oxidase in endothelium” value is on record as “fully inhibits”. Also, the “response of basilar artery diameter to acetylcholine in vivo after SAH” value with rat basilar artery is reported as “not impaired; also recorded: prevents any significant reduction”.
